*1 amine or outer side, *2 acyl side, *3 side chain or, on linkers, in order; H or OH if unused. Where a SMILES comes first, the peptide text is derived from it. Bridges are numbered along the chain shown (N, C = ends). [ ]: non-standard residue; d: D form. The star is where a group is joined. ξ: configuration not given here. Phe(4-COOH) = N[C@@H](Cc1ccc(C(=O)O)cc1)C(=O)O; Tyr(3-Cl) = N[C@@H](Cc1ccc(O)c(Cl)c1)C(=O)O; X8 = O=C([C@H](Cc1ccc2ccncc2c1)N[*:1])[*:2]; Bip = N[C@@H](Cc1ccc(-c2ccccc2)cc1)C(=O)O; Phe(3-OMe) = COc1cccc(C[C@H](N)C(=O)O)c1; Phe(3-Me) = Cc1cccc(C[C@H](N)C(=O)O)c1; 4Pal = N[C@@H](Cc1ccncc1)C(=O)O; 2Thi = N[C@@H](Cc1cccs1)C(=O)O; Cha = N[C@@H](CC1CCCCC1)C(=O)O; Cit = NC(=O)NCCC[C@H](N)C(=O)O; dCha = N[C@H](CC1CCCCC1)C(=O)O; Thr(3ξ) = CC(O)[C@H](N)C(=O)O; NMeNle = CCCC[C@H](NC)C(=O)O; Carboxymethyl = O=C(O)C*; Orn = NCCC[C@H](N)C(=O)O; Dab = NCC[C@H](N)C(=O)O; Dap = NC[C@H](N)C(=O)O; Propargyl = C#CC*

This assay addresses T1, human PD-1 / PD-L1-Ig binding on Jurkat cell line over-expressing human PD-1 (Jurkat-PD-1) (Homo sapiens, UniProt Q15116).
T1 construct: expressed in transfected cells; host or cells: Jurkat
The experiment in a line: Jurkat-PD-1 Cell Binding High-Content Screening Assay (CBA). The class given is cell-based. The conditions noted are these: Jurkat-PD-1 cells, PE-labeled PD-L1-Ig 20 nM final; read-out: Jurkat HPD1_PDL1 IC50. The essentials:
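Jurkat cells over-expressing human PD-1, in DMEM/10% FCS, pre-incubated with compound 2 h at 37° C. PE-labeled human PD-L1-Ig (20 nM final) added for 1 h; cells fixed in paraformaldehyde with Hoechst 33342 nuclear stain, washed, and bound fluorescence quantified by high-content imaging.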

T1 sequence (Q15116 25-288): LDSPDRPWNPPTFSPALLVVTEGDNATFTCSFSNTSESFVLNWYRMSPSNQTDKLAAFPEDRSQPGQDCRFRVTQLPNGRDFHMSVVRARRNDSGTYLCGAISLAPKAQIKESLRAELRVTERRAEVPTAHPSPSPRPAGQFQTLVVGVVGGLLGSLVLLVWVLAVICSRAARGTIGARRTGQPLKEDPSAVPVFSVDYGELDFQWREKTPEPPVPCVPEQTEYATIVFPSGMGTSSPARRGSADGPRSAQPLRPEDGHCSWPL

On to `CC[C@H](C)[C@@H]1NC(=O)[C@H](Cc2ccc(-c3ccccc3)cc2)NC(=O)[C@H](C(C)C)NC(=O)[C@H](Cc2cccc(C)c2)NC(=O)[C@H](CC(=O)O)NC(=O)[C@H](Cc2ccc(C(=O)O)cc2)NC(=O)[C@H](Cc2ccc(OCC(=O)O)cc2)NC(=O)CSC[C@@H](C(N)=O)NC(=O)[C@H]([C@@H](C)O)NC(=O)[C@H](C(C)C)NC(=O)[C@H](CC(C)C)NC(=O)[C@H](CCN)NC(=O)[C@@H](CC(C)C)NC(=O)[C@H](CCCN)NC1=O` [Compound 1555] ({CH2CO}-Y(Carboxymethyl)[Phe(4-COOH)]D[Phe(3-Me)]V[Bip]I[Orn][dL][Dab]LVTC-NH2; thioether N-14), for which the IC50 (in general, the concentration that gives 50% inhibition) is 43.3 nM.
Then `CC(C)[C@@H]1NC(=O)[C@H](Cc2c[nH]c3ccccc23)NC(=O)[C@H](CC(=O)O)NC(=O)[C@H](Cc2ccc(OCC(=O)O)cc2)NC(=O)[C@H](CN)NC(=O)CSC[C@@H](C(=O)N[C@@H](C)C(N)=O)NC(=O)[C@H]([C@@H](C)O)NC(=O)[C@H](C(C)C)NC(=O)[C@H](CC2CCCCC2)NC(=O)[C@H](CCN)NC(=O)[C@@H](Cc2ccc(O)cc2)NC(=O)[C@H](CCCN)NC(=O)[C@H](CCC(=O)O)NC(=O)[C@H](Cc2ccc(-c3ccccc3)cc2)NC1=O` [Compound 1448] ({CH2CO}-[Dap]Y(Carboxymethyl)DWV[Bip]E[Orn][dY][Dab][Cha]VTCA-NH2; thioether N-14), with 26.9 nM.
On to `C#CCOc1ccc(C[C@@H]2NC(=O)[C@H](CC3CCCCC3)NC(=O)[C@H](CCN)NC(=O)[C@@H](CC(C)C)NC(=O)[C@H](CCCN)NC(=O)[C@H](C(C)C)NC(=O)[C@H](Cc3ccc(-c4ccccc4)cc3)NC(=O)[C@H](C(C)C)NC(=O)[C@H](Cc3cccc(C)c3)NC(=O)[C@H](CC(=O)O)NC(=O)[C@H](Cc3ccc(C(=O)O)cc3)NC(=O)[C@H](CN)NC(=O)CSC[C@@H](C(=O)N[C@@H](CCN)C(N)=O)NC(=O)[C@H]([C@@H](C)O)NC2=O)cc1` [Compound 2028] ({CH2CO}-[Dap][Phe(4-COOH)]D[Phe(3-Me)]V[Bip]V[Orn][dL][Dab][Cha]Y(Propargyl)TC[Dab]-NH2; thioether N-14), for which the IC50 came out at 9.3 nM.
Then `Cc1cccc(C[C@@H]2NC(=O)[C@H](CC(=O)O)NC(=O)[C@H](Cc3ccncc3)NC(=O)[C@H](Cc3ccc(OCC(=O)O)cc3)NC(=O)CSC[C@@H](C(=O)N[C@@H](C)C(N)=O)NC(=O)[C@H]([C@@H](C)O)NC(=O)[C@H](C(C)C)NC(=O)[C@H](CC3CCCCC3)NC(=O)[C@H](CCN)NC(=O)[C@@H](CC(C)C)NC(=O)[C@H](CCCN)NC(=O)[C@H](CCCNC(N)=O)NC(=O)[C@H](Cc3ccc(-c4ccccc4)cc3)NC(=O)[C@H](C(C)C)NC2=O)c1` [Compound 1325] ({CH2CO}-Y(Carboxymethyl)[4Pal]D[Phe(3-Me)]V[Bip][Cit][Orn][dL][Dab][Cha]VTCA-NH2; thioether N-14), with 3.1 nM; and `CC(C)C[C@@H]1NC(=O)[C@H](CCN)NC(=O)[C@@H](CC(C)C)NC(=O)[C@H](C(C)C)NC(=O)[C@H](C(C)C)NC(=O)[C@H](Cc2ccc(-c3ccccc3)cc2)NC(=O)[C@H](C(C)C)NC(=O)[C@H](Cc2c[nH]c3ccccc23)NC(=O)[C@H](CC(=O)O)NC(=O)[C@H](Cc2ccc(O)cc2)NC(=O)[C@H](CC(N)=O)NC(=O)CSC[C@@H](C(=O)N[C@@H](C)C(N)=O)NC(=O)[C@H]([C@@H](C)O)NC(=O)[C@H](C(C)C)NC1=O` [Compound 1034] ({CH2CO}-NYDWV[Bip]VV[dL][Dab]LVTCA-NH2; thioether N-14), with 99 nM.
Then `CC(C)C[C@H]1NC(=O)[C@H](CCCN)NC(=O)[C@H](CCC(=O)O)NC(=O)[C@H](Cc2ccc(-c3ccccc3)cc2)NC(=O)[C@H](C(C)C)NC(=O)[C@H](Cc2ccc3ccncc3c2)NC(=O)[C@H](CC(=O)O)NC(=O)[C@H](Cc2ccc(OCC(=O)O)cc2)NC(=O)[C@H](CN)NC(=O)CSC[C@@H](C(=O)N[C@@H](C)C(N)=O)NC(=O)[C@H]([C@@H](C)O)NC(=O)[C@H](C(C)C)NC(=O)[C@H](CC2CCCCC2)NC(=O)[C@H](CCN)NC1=O` [Compound 2144] ({CH2CO}-[Dap]Y(Carboxymethyl)D[X8]V[Bip]E[Orn][dL][Dab][Cha]VTCA-NH2; thioether N-14), with 785 nM.
The figure for `CC(C)C[C@@H]1NC(=O)[C@H](Cc2c[nH]c3ccccc23)NC(=O)[C@H](CC(=O)O)NC(=O)[C@H](Cc2ccc(OCC(=O)O)cc2)NC(=O)[C@H](Cc2ccc(OCC(=O)O)cc2)NC(=O)CSC[C@@H](C(=O)NCC(N)=O)NC(=O)[C@H](CO)NC(=O)[C@H](C(C)C)NC(=O)[C@H](CC2CCCCC2)NC(=O)[C@H](CCN)NC(=O)[C@@H](CC(C)C)NC(=O)[C@H](CCCN)NC(=O)[C@H](C(C)C)NC(=O)[C@H](Cc2ccc(-c3ccccc3)cc2)NC1=O` [Compound 1404] ({CH2CO}-Y(Carboxymethyl)Y(Carboxymethyl)DWL[Bip]V[Orn][dL][Dab][Cha]VSCG-NH2; thioether N-14) is 5.1 nM; for `CC(C)C[C@H]1NC(=O)[C@H](CCCN)NC(=O)[C@H](CCC(=O)O)NC(=O)[C@H](Cc2ccc(-c3ccccc3)cc2)NC(=O)[C@H](C(C)C)NC(=O)[C@H](Cc2cccs2)NC(=O)[C@H](CC(=O)O)NC(=O)[C@H](Cc2ccncc2)NC(=O)[C@H](CC(N)=O)NC(=O)CSC[C@@H](C(=O)N[C@@H](C)C(N)=O)NC(=O)[C@H]([C@@H](C)O)NC(=O)[C@H](C(C)C)NC(=O)[C@H](CC2CCCCC2)NC(=O)[C@H](CCN)NC1=O` [Compound 2199] ({CH2CO}-N[4Pal]D[2Thi]V[Bip]E[Orn][dL][Dab][Cha]VTCA-NH2; thioether N-14) it is 10.6 nM; for `CC(C)[C@@H]1NC(=O)[C@H](Cc2c[nH]c3ccccc23)NC(=O)[C@H](CC(=O)O)NC(=O)[C@H](Cc2ccc(C(=O)O)cc2)NC(=O)[C@H](Cc2ccc(OCC(=O)O)cc2)NC(=O)CSC[C@@H](C(=O)N[C@@H](C)C(N)=O)NC(=O)[C@H]([C@@H](C)O)NC(=O)[C@H](C(C)C)NC(=O)[C@H](CC2CCCCC2)NC(=O)[C@H](CCN)NC(=O)[C@@H](CC2CCCCC2)NC(=O)[C@H](CCCN)NC(=O)[C@H](CCC(=O)O)NC(=O)[C@H](Cc2ccc(-c3ccccc3)cc2)NC1=O` [Compound 1444] ({CH2CO}-Y(Carboxymethyl)[Phe(4-COOH)]DWV[Bip]E[Orn][dCha][Dab][Cha]VTCA-NH2; thioether N-14) it is 5.7 nM.
On to `CC(C)C[C@@H]1NC(=O)[C@H](Cc2c[nH]c3ccccc23)NC(=O)[C@H](CC(=O)O)NC(=O)[C@H](Cc2ccc(OCC(=O)O)cc2)NC(=O)[C@H](C(C)O)NC(=O)CSC[C@@H](C(N)=O)NC(=O)[C@H](CO)NC(=O)[C@H](C(C)C)NC(=O)[C@H](CC2CCCCC2)NC(=O)[C@H](Cc2cnc[nH]2)NC(=O)[C@@H](CC(C)C)NC(=O)[C@H](CCC(=O)O)NC(=O)[C@H](C(C)C)NC(=O)[C@H](Cc2ccc(-c3ccccc3)cc2)NC1=O` (stereo partly drawn) [Compound 2609] ({CH2CO}-[Thr(3ξ)]Y(Carboxymethyl)DWL[Bip]VE[dL]H[Cha]VSC-NH2; thioether N-14), for which the IC50 was determined as 89.1 nM.
Take `CCCC[C@H]1C(=O)N[C@@H](Cc2ccc(OCC(=O)O)cc2)C(=O)N[C@@H](CC(=O)O)C(=O)N[C@@H](Cc2cccc(C)c2)C(=O)N[C@@H](C(C)C)C(=O)N[C@@H](Cc2ccc(-c3ccccc3)cc2)C(=O)N[C@@H](C(C)O)C(=O)N[C@@H](CCCN)C(=O)N[C@H](CC(C)C)C(=O)N[C@@H](CCN)C(=O)N[C@@H](CC2CCCCC2)C(=O)N[C@@H](C(C)C)C(=O)N[C@@H](C(C)O)C(=O)N[C@H](C(=O)N[C@@H](CC(N)=O)C(N)=O)CSCC(=O)N1C` (stereo partly drawn) [Compound 2553] ({CH2CO}-[NMeNle]Y(Carboxymethyl)D[Phe(3-Me)]V[Bip][Thr(3ξ)][Orn][dL][Dab][Cha]V[Thr(3ξ)]CN-NH2; thioether N-14): the IC50 is 24.6 nM.
Then `CC(C)C[C@H]1NC(=O)[C@H](CCCN)NC(=O)[C@H](C(C)C)NC(=O)[C@H](Cc2ccc(-c3ccccc3)cc2)NC(=O)[C@H](C(C)C)NC(=O)[C@H](Cc2c[nH]c3ccccc23)NC(=O)[C@H](CC(=O)O)NC(=O)[C@H](Cc2ccc(OCC(=O)O)cc2)NC(=O)[C@H](CCCCNC(=N)N)NC(=O)CSC[C@@H](C(=O)N[C@@H](C)C(N)=O)NC(=O)[C@H](C(C)O)NC(=O)[C@H](C(C)C)NC(=O)[C@H](CC2CCCCC2)NC(=O)[C@H](Cc2c[nH]cn2)NC1=O` (some centres unmarked) [Compound 2555], with 19.5 nM; and `CC(C)C[C@H]1NC(=O)[C@H](CCCN)NC(=O)[C@H](C(C)C)NC(=O)[C@H](Cc2ccc(-c3ccccc3)cc2)NC(=O)[C@H](C(C)C)NC(=O)[C@H](Cc2ccc(O)c(Cl)c2)NC(=O)[C@H](CC(=O)O)NC(=O)[C@H](Cc2ccc(OCC(=O)O)cc2)NC(=O)[C@H](CN)NC(=O)CSC[C@@H](C(=O)N[C@@H](CCN)C(N)=O)NC(=O)[C@H](CCCCN)NC(=O)[C@H](C(C)C)NC(=O)[C@H](CC2CCCCC2)NC(=O)[C@H](CCN)NC1=O` [Compound 2035] ({CH2CO}-[Dap]Y(Carboxymethyl)D[Tyr(3-Cl)]V[Bip]V[Orn][dL][Dab][Cha]VKC[Dab]-NH2; thioether N-14), with 15 nM; and `COc1cccc(C[C@@H]2NC(=O)[C@H](CC(=O)O)NC(=O)[C@H](Cc3ccc(OCC(=O)O)cc3)NC(=O)[C@H](Cc3ccccc3)NC(=O)CSC[C@@H](C(=O)N[C@@H](C)C(N)=O)NC(=O)[C@H]([C@@H](C)O)NC(=O)[C@H](C(C)C)NC(=O)[C@H](CC3CCCCC3)NC(=O)[C@H](CCN)NC(=O)[C@@H](CC(C)C)NC(=O)[C@H](CCCN)NC(=O)[C@H](CCC(=O)O)NC(=O)[C@H](Cc3ccc(-c4ccccc4)cc3)NC(=O)[C@H](C(C)C)NC2=O)c1` [Compound 1542] ({CH2CO}-FY(Carboxymethyl)D[Phe(3-OMe)]V[Bip]E[Orn][dL][Dab][Cha]VTCA-NH2; thioether N-14), with 18.6 nM.

For the origin of these results see patent publication US20250163104A1, “MACROCYCLIC IMMUNOMODULATORS” (priority 2021, published 2025).
